Assay results as given in patent US10266526B2, “Substituted 1,2,3-triazoles as SMYD inhibitors for treating cancer” (EPIZYME, INC., priority 2014, dated 2019).

Target: SMYD2 (Homo sapiens (Human), UniProt Q9NRG4)
Experiment: SMYD2 biochemical assay (SMYD2 enzyme assay on peptide substrate, 3H-SAM Flashplate)
Conditions: read-out: SMYD2 Biochem IC50; IC50 values are an average of n = 1 to n = 50
Excerpt: S-adenosylmethionine (SAM), S-adenosylhomocysteine (SAH), bicine, Tween20, dimethylsulfoxide (DMSO), bovine skin gelatin (BSG), and Tris(2-carboxyethyl)phosphine hydrochloride (TCEP) were purchased from Sigma-Aldrich at the highest level of purity possible. ^3H-SAM was purchase from American Radiolabeled Chemicals with a specific activity of 80 Ci/mmol. 384-well streptavidin Flashplates were purchased from PerkinElmer.
The sequence was [sequence](K-Biot)-amide.
Production of Recombinant SMYD2 Enzymes for Biochemical Enzyme Activity Assays
Full length SMYD2 (NP_064582.2) was cloned into a pFastbac-Htb-lic vector with an N-terminal His6 tag and FLAG tag, preceded by a TEV protease cleavage site. The protein was expressed in Sf9 insect cells. Cells were resuspended in lysis buffer (25 mM HEPES-NaOH, pH 7.5, 200 mM NaCl, 5% glycerol, and 5 mM (3-ME) and lysed by sonication. The protein was purified by Ni-NTA (Qiagen), followed by TEV cleavage to remove the His6 tag, subtractive Ni-NTA (Qiagen), and gel filtration chromatography using an S200 column (GE Healthcare). Purified protein was stored in 20 mM Tris-HCl, pH 8.0, 100 mM NaCl, and 1 mM TCEP.
General Procedure for SMYD2 Enzyme Assays on Peptide Substrates
The assays were all performed in a buffer consisting of 20 mM Bicine (pH=7.6), 1 mM TCEP, 0.005% Bovine Skin Gelatin, and 0.002% Tween20, prepared on the day of use. […] DMSO (1 ul) was added to Columns 11, 12, 23, 24, rows A-H for the maximum signal control and 1 ul of SAH, a known product and inhibitor of SMYD2, was added to columns 11, 12, 23, 24, rows I-P for the minimum signal control. A cocktail (40 ul) containing the SMYD2 enzyme was added by Multidrop Combi (Thermo-Fisher). The compounds were allowed to incubate with SMYD2 for 30 min at room temperature, then a cocktail (10 ul) containing ^3H-SAM and peptide was added to initiate the reaction (final volume=51 ul). […] The assays were stopped by the addition of non-radioactive SAM (10 ul) to a final concentration of 600 uM, which dilutes the ^3H-SAM to a level where its incorporation into the peptide substrate is no longer detectable. 50 ul of the reaction in the 384-well polypropylene plate was then transferred to a 384-well Flashplate and the biotinylated peptides were allowed to bind to the streptavidin surface for at least 1 hour before being washed three times with 0.1% Tween20 in a Biotek ELx405 plate washer. The plates were then read in a PerkinElmer TopCount plate reader to measure the quantity of ^3H-labeled peptide bound to the Flashplate surface, measured as disintegrations per minute (dpm) or alternatively, referred to as counts per minute (cpm).
Where dpm=disintegrations per minute, cmpd=signal in assay well, and min and max are the respective minimum and maximum signal controls.
Where top and bottom are the normally allowed to float, but may be fixed at 100 or 0 respectively in a 3-parameter fit. The Hill Coefficient normally allowed to float but may also be fixed at 1 in a 3-parameter fit. I is the compound concentration.

Sequence of SMYD2 (Q9NRG4 whole entry): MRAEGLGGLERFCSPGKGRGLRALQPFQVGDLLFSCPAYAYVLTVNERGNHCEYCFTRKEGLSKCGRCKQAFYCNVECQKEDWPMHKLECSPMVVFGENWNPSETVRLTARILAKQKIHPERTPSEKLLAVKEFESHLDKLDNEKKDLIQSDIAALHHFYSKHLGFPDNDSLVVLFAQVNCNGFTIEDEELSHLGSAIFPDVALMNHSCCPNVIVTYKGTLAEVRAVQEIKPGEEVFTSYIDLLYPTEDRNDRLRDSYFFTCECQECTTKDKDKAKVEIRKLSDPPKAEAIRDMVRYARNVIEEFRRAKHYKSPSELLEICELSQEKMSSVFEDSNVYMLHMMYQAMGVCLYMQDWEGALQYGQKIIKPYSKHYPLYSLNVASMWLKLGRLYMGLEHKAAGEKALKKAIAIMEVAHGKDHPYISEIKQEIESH

| IC50 | SMILES |
| --- | --- |
| 755 nM | CC(c1ccc(N2CCOCC2)cc1)N1CC(NC(=O)c2cn(C3CC3)nn2)C1 (stereo not shown) [compound 728, 1-cyclopropyl-N-(1-{1-[4-(morpholin-4-yl)phenyl]ethyl}azetidin-3-yl)-1H-1,2,3-triazole-4-carboxamide] |
| > 50000 nM | COc1cccc(C(N2CC(NC(=O)c3cn(C4CC4)nn3)C2)C(F)(F)F)c1 (stereo not shown) [compound 729, 1-cyclopropyl-N-{1-[2,2,2-trifluoro-1-(3-methoxyphenyl)ethyl]azetidin-3-yl}-1H-1,2,3-triazole-4-carboxamide] |
| 1520 nM | O=C(NC1CN(C(c2ccccc2)C2CCC2)C1)c1cn(C2CC2)nn1 (stereo not shown) [compound 731, N-{1-[cyclobutyl(phenyl)methyl]azetidin-3-yl}-1-cyclopropyl-1H-1,2,3-triazole-4-carboxamide] |
| 2590 nM | COc1cc(C(C)N2CC(NC(=O)c3cn(C4CC4)nn3)C2)ccc1F (stereo not shown) [compound 732, 1-cyclopropyl-N-{1-[1-(4-fluoro-3-methoxyphenyl)ethyl]azetidin-3-yl}-1H-1,2,3-triazole-4-carboxamide] |
| 2330 nM | CNCCOc1cccc(CN2CC(NC(=O)c3cn(C4CC4)nn3)C2)c1 [compound 735, 1-cyclopropyl-N-[1-({3-[2-(methylamino)ethoxy]phenyl}methyl)azetidin-3-yl]-1H-1,2,3-triazole-4-carboxamide] |
| 718 nM | CC(c1cccc(OCc2ccccc2)c1)N1CC(NC(=O)c2cn(C3CC3)nn2)C1 (stereo not shown) [compound 737, N-(1-{1-[3-(benzyloxy)phenyl]ethyl}azetidin-3-yl)-1-cyclopropyl-1H-1,2,3-triazole-4-carboxamide] |
| 7780 nM | CC(c1cc(F)ccc1F)N1CC(NC(=O)c2cn(C3CC3)nn2)C1 (stereo not shown) [compound 746, 1-cyclopropyl-N-{1-[1-(2,5-difluorophenyl)ethyl]azetidin-3-yl}-1H-1,2,3-triazole-4-carboxamide] |
| 1920 nM | CC(c1ccc(F)cc1)N1CC(NC(=O)c2cn(C3CC3)nn2)C1 (stereo not shown) [compound 747, 1-cyclopropyl-N-{1-[1-(4-fluorophenyl)ethyl]azetidin-3-yl}-1H-1,2,3-triazole-4-carboxamide] |
| 565 nM | COc1ccc(C(N2CC(NC(=O)c3cn(C4CC4)nn3)C2)C(F)(F)F)cc1 (stereo not shown) [compound 749, 1-cyclopropyl-N-{1-[2,2,2-trifluoro-1-(4-methoxyphenyl)ethyl]azetidin-3-yl}-1H-1,2,3-triazole-4-carboxamide] |
| 17000 nM | CNCCN1CCC(CN2CC(NC(=O)c3cn(C4CC4)nn3)C2)C1=O (stereo not shown) [compound 756, 1-cyclopropyl-N-[1-({1-[2-(methylamino)ethyl]-2-oxopyrrolidin-3-yl}methyl)azetidin-3-yl]-1H-1,2,3-triazole-4-carboxamide] |
| 7970 nM | COc1cccc2c1C(N1CC(NC(=O)c3cn(C4CC4)nn3)C1)CC2 (stereo not shown) [compound 762, 1-cyclopropyl-N-[1-(7-methoxy-2,3-dihydro-1H-inden-1-yl)azetidin-3-yl]-1H-1,2,3-triazole-4-carboxamide] |
| 10200 nM | O=C(NC1CN(Cc2ccc3c(c2)C(=O)NC3)C1)c1cn(C2CC2)nn1 [compound 765, 1-cyclopropyl-N-{1-[(3-oxo-2,3-dihydro-1H-isoindol-5-yl)methyl]azetidin-3-yl}-1H-1,2,3-triazole-4-carboxamide] |
| 4190 nM | CC(C)N1CC(NC(=O)c2cn(C3CC3(F)F)nn2)C1 (stereo not shown) [compound 770, 1-(2,2-difluorocyclopropyl)-N-[1-(propan-2-yl)azetidin-3-yl]-1H-1,2,3-triazole-4-carboxamide] |
| 10800 nM | COc1c(CO)cccc1CN1CC(NC(=O)c2cn(C3CC3)nn2)C1 [compound 772, 1-cyclopropyl-N-(1-{[3-(hydroxymethyl)-2-methoxyphenyl]methyl}azetidin-3-yl)-1H-1,2,3-triazole-4-carboxamide] |
| 49.4 nM | CC(c1cccc(OCCO)c1Cl)N1CC(NC(=O)c2cn(C3CC3)nn2)C1 (stereo not shown) [compound 775, N-(1-{1-[2-chloro-3-(2-hydroxyethoxy)phenyl]ethyl}azetidin-3-yl)-1-cyclopropyl-1H-1,2,3-triazole-4-carboxamide] |

More lines, now with the values behind:

| SMILES | IC50 |
| --- | --- |
| CC(c1cccc(Oc2ccccc2)c1)N1CC(NC(=O)c2cn(C3CC3)nn2)C1 (stereo not shown) [compound 730, 1-cyclopropyl-N-{1-[1-(3-phenoxyphenyl)ethyl]azetidin-3-yl}-1H-1,2,3-triazole-4-carboxamide] | 3040 nM |
| Cn1cnc(CN2CC(NC(=O)c3cn(C4CC4)nn3)C2)c1 [compound 733, 1-cyclopropyl-N-{1-[(1-methyl-1H-imidazol-4-yl)methyl]azetidin-3-yl}-1H-1,2,3-triazole-4-carboxamide] | 6800 nM |
| O=C(NC1CN(Cc2cccc(OCCO)c2)C1)c1cn(C2CC2)nn1 [compound 734, 1-cyclopropyl-N-(1-{[3-(2-hydroxyethoxy)phenyl]methyl}azetidin-3-yl)-1H-1,2,3-triazole-4-carboxamide] | 2310 nM |
| CC(c1ccc(Oc2ccccc2)cc1)N1CC(NC(=O)c2cn(C3CC3)nn2)C1 (stereo not shown) [compound 739, 1-cyclopropyl-N-{1-[1-(4-phenoxyphenyl)ethyl]azetidin-3-yl}-1H-1,2,3-triazole-4-carboxamide] | 1070 nM |
| O=C(NC1CN(C2CCc3cc(F)ccc32)C1)c1cn(C2CC2)nn1 (stereo not shown) [compound 740, 1-cyclopropyl-N-[1-(5-fluoro-2,3-dihydro-1H-inden-1-yl)azetidin-3-yl]-1H-1,2,3-triazole-4-carboxamide] | 6960 nM |
| CC(c1ccccc1C(F)(F)F)N1CC(NC(=O)c2cn(C3CC3)nn2)C1 (stereo not shown) [compound 741, 1-cyclopropyl-N-(1-{1-[2-(trifluoromethyl)phenyl]ethyl}azetidin-3-yl)-1H-1,2,3-triazole-4-carboxamide] | 1010 nM |
| CC(c1c(F)cccc1F)N1CC(NC(=O)c2cn(C3CC3)nn2)C1 (stereo not shown) [compound 742, 1-cyclopropyl-N-{1-[1-(2,6-difluorophenyl)ethyl]azetidin-3-yl}-1H-1,2,3-triazole-4-carboxamide] | 2850 nM |
| CC(c1cccc(Cl)c1Cl)N1CC(NC(=O)c2cn(C3CC3)nn2)C1 (stereo not shown) [compound 743, 1-cyclopropyl-N-{1-[1-(2,3-dichlorophenyl)ethyl]azetidin-3-yl}-1H-1,2,3-triazole-4-carboxamide] | 488 nM |
| CC(c1cnccn1)N1CC(NC(=O)c2cn(C3CC3)nn2)C1 (stereo not shown) [compound 745, 1-cyclopropyl-N-{1-[1-(pyrazin-2-yl)ethyl]azetidin-3-yl}-1H-1,2,3-triazole-4-carboxamide] | 7440 nM |
| COc1cccc(O)c1C(C)N1CC(NC(=O)c2cn(C3CC3)nn2)C1 (stereo not shown) [compound 750, 1-cyclopropyl-N-{1-[1-(2-hydroxy-6-methoxyphenyl)ethyl]azetidin-3-yl}-1H-1,2,3-triazole-4-carboxamide] | 1280 nM |
| NCc1cccc(CN2CC(NC(=O)c3cn(C4CC4)nn3)C2)c1 [compound 754, N-(1-{[3-(aminomethyl)phenyl]methyl}azetidin-3-yl)-1-cyclopropyl-1H-1,2,3-triazole-4-carboxamide] | 7340 nM |
| O=C(NC1CN(C2(c3ccccc3)CC2)C1)c1cn(C2CC2)nn1 [compound 755, 1-cyclopropyl-N-[1-(1-phenylcyclopropyl)azetidin-3-yl]-1H-1,2,3-triazole-4-carboxamide] | 30500 nM |
| CNC1CCOC(CN2CC(NC(=O)c3cn(C4CC4)nn3)C2)C1 (stereo not shown) [compound 758, 1-cyclopropyl-N-(1-{[4-(methylamino)oxan-2-yl]methyl}azetidin-3-yl)-1H-1,2,3-triazole-4-carboxamide] | > 50000 nM |
| CC(c1n[nH]c2ccccc12)N1CC(NC(=O)c2cn(C3CC3)nn2)C1 (stereo not shown) [compound 761, 1-cyclopropyl-N-{1-[1-(1H-indazol-3-yl)ethyl]azetidin-3-yl}-1H-1,2,3-triazole-4-carboxamide] | 3210 nM |
| O=C(NC1CN(C(c2ccccc2)C(F)(F)F)C1)c1cn(C2CC2)nn1 (stereo not shown) [compound 766, 1-cyclopropyl-N-[1-(2,2,2-trifluoro-1-phenylethyl)azetidin-3-yl]-1H-1,2,3-triazole-4-carboxamide] | > 50000 nM |
| CC(c1ccc2c(c1)OCCO2)N1CC(NC(=O)c2cn(C3CC3)nn2)C1 (stereo not shown) [compound 767, 1-cyclopropyl-N-{1-[1-(2,3-dihydro-1,4-benzodioxin-6-yl)ethyl]azetidin-3-yl}-1H-1,2,3-triazole-4-carboxamide] | 576 nM |
| COc1cccc(OC)c1C(C)N1CC(NC(=O)c2cn(C3CC3)nn2)C1 (stereo not shown) [compound 768, 1-cyclopropyl-N-{1-[1-(2,6-dimethoxyphenyl)ethyl]azetidin-3-yl}-1H-1,2,3-triazole-4-carboxamide] | 1680 nM |
| CC(c1c(Cl)cccc1Cl)N1CC(NC(=O)c2cn(C3CC3)nn2)C1 (stereo not shown) [compound 769, 1-cyclopropyl-N-{1-[1-(2,6-dichlorophenyl)ethyl]azetidin-3-yl}-1H-1,2,3-triazole-4-carboxamide] | 1200 nM |
| CS(=O)(=O)CC(c1ccccc1)N1CC(NC(=O)c2cn(C3CC3)nn2)C1 (stereo not shown) [compound 773, 1-cyclopropyl-N-[1-(2-methanesulfonyl-1-phenylethyl)azetidin-3-yl]-1H-1,2,3-triazole-4-carboxamide] | > 50000 nM |
| CC(c1ccc2c(c1)NC(=O)CO2)N1CC(NC(=O)c2cn(C3CC3)nn2)C1 (stereo not shown) [compound 774, 1-cyclopropyl-N-{1-[1-(3-oxo-3,4-dihydro-2H-1,4-benzoxazin-6-yl)ethyl]azetidin-3-yl}-1H-1,2,3-triazole-4-carboxamide] | 1620 nM |
| COc1c(OCCO)cccc1C(C)N1CC(NC(=O)c2cn(C3CC3)nn2)C1 (stereo not shown) [compound 776, 1-cyclopropyl-N-(1-{1-[3-(2-hydroxyethoxy)-2-methoxyphenyl]ethyl}azetidin-3-yl)-1H-1,2,3-triazole-4-carboxamide] | 345 nM |
| COc1nn(C)cc1CN1CC(NC(=O)c2cn(C3CC3)nn2)C1 [compound 777, 1-cyclopropyl-N-{1-[(3-methoxy-1-methyl-1H-pyrazol-4-yl)methyl]azetidin-3-yl}-1H-1,2,3-triazole-4-carboxamide] | 5620 nM |
